What was measured:
hippocampal neurogenesis = details: literature; antidepressants given chronically; cited from earlier work
[1] = tested on: NCAM PSA-immunoreactive neurons, dentate granule cell layer/hilar border; assay: NCAM PSA expression in hippocampal dentate gyrus after chronic administration; type: in vivo, rat; details: for PSA immunopositive cell frequency: hippocampal dentate
Protocol: (§1) Experimentally naïve postnatal day 80 (at the time of NCAM-PSA assessment) male Wistar rats were employed in all studies. All animals were housed singly and maintained at 22±2° C. on a standard 12 h-light/dark cycle with food and water available ad libitum. Animals were introduced to the experimental holding rooms at least 3 days prior to the commencement of any study.
(§2) Freshly dissected whole rat brain was carefully coated in optimum cutting temperature (OCT) compound and lowered into a Cryoprep freezing apparatus containing dry-ice-cooled n-hexane. The function of the OCT compound and n-hexane was to provide an even freezing of the tissue, thus avoiding freezing artefacts. Horizontal sections for all studies were cut semi-automatically or automatically on a Microm Series 500 cryostat. Fresh, frozen brain sections (12 μm) were cut at −15° C., while cryoprotected. All sections were prepared on the day of the experiment and were not pre-cut and stored frozen.
(§3) Horizontal cryosections were cut from the frozen tissue at various levels with reference to Bregma (see above), these were thaw-mounted onto glass slides, which were coated with poly-1-lysine diluted 1:1 in dH2O, and immersion fixed for 30 minutes with 70% ethanol. The sections were then washed twice for 10 minutes each in 0.1M phosphate buffered saline (PBS) and incubated for 20 hours in a humidified chamber at room temperature with the primary antibody diluted 1:500 in PBS containing 1% bovin serum albumin (w/v) and 1% normal goat serum (v/v) to reduce non-specific staining. The humidified chamber prevented the sections from evaporating. The primary antibody was a monoclonal raised against PSA, which was provided by Professor G, Rougon (CNRS UMR 6545, 13288 Marseille, France). On completion of the primary antibody incubation, the sections were washed twice for ten minutes each in PBS and incubated at room temperature for 3 hours in the humidified chamber with the secondary antibody, at a dilution factor of 1:100, again in PBS containing 1% BSA and 1% NGS. The secondary antibody was a goat anti-mouse IgM conjugated to fluorescein (FITC). Following the second incubation, the sections ware again washed twice for ten minutes each in PBS, mounted in the fluorescence enhancing medium Citifluor® and observed for fluorescence with a Leitz DM RB fluorescent microscope.
(§4) Quantitative image analysis was performed using the Leica Quantimet 500®, a P.C.-based software package, which was connected to the fluorescence microscope with a high sensitivity CCD video camera. Each microscope lens was calibrated for length and area measurements using a 1 mm graticule. The total number of NCAM PSA-immunoreactive neurons on the right dentate granule cell layer/hilar border were counted in 7 alternate 12 μm sections commencing −5.6 mm from Bregma (Paxinos and Watson, 1986), to preclude double counting of the 5-10 μm perikarya. Cell identification was aided by the use of the nuclear counter-stain propidium iodide (40 ng/ml PBS; 60 sec). The number of cells was then divided by the total area of the dentate granule cell layer and multiplied by the average granule cell layer area for a p80 rat, which is 0.15±0.01 mm^2 at this level. This was done for each section and a mean±SEM was calculated for each brain with the results expressed as PSA-positive cells per unit area. […] Cell identification was again aided by the use of the nuclear counter-stain propidium iodide (40 ng/ml PBS; 60 sec) with the use of alternate sections eliminating the possibility of double counting. Cell counts were divided by the length of the cortex and multiplied by the average length of the cortex, which was taken to be 10 mm. This was completed for each section and a mean±SEM was calculated for each brain with the results expressed as PSA-positive cells per unit length.
NCAM PSA-positive cell numbers were obtained from each animal group.

[2] = tested on: NCAM PSA-immunoreactive neurons, dentate granule cell layer/hilar border; assay: NCAM PSA expression in hippocampal dentate gyrus with water maze training; type: in vivo, rat; details: chronic 20 mg/kg; for PSA immunopositive cell frequency: Example 4, 40 days by gavage
Protocol: as §1, §2, §3, §4
In this protocol animals were introduced to the training environment 5 days prior to training, and individually housed according to standard conditions. […]

[3] = tested on: BrdU-immunopositive cells in the hippocampal dentate granule cell layer; assay: BrdU expression in hippocampal dentate granule cell layer (neurogenesis); type: in vivo, rat
Protocol: as §1

Structure (SMILES): N[C@@H]1C[C@H]1c1ccccc1 (racemic) [tranylcypromine]
- effect on hippocampal neurogenesis (hippocampal neurogenesis): stimulate hippocampal neurogenesis

Structure (SMILES): CCOC(=O)[C@H](N)/C=C(\C)CP(=O)(O)O [CGP43487]
- effect on hippocampal neurogenesis (hippocampal neurogenesis): reduce the rate of hippocampal neurogenesis

Structure (SMILES): COc1ccc(S(=O)(=O)Nc2cc(Cl)cc(Cl)c2OC)cc1N1CCNCC1.Cl [SB399885, N-(3,5-dichloro-2-methoxy-phenyl)-4-methoxy-3-piperazin-1-yl-benzenesulfonamide hydrochloride]
- PSA immunopositive cell frequency ([1]; Example 3, 3 mg/kg, 40 days by gavage): 81.4 ± 5.3 PSA-positive cells per unit area
- PSA immunopositive cell frequency ([1]; Example 3, 10 mg/kg, 40 days by gavage): 87.4 ± 5.4 PSA-positive cells per unit area
- PSA immunopositive cell frequency ([1]; Example 3, 20 mg/kg, 40 days by gavage): 104.2 ± 4.4 PSA-positive cells per unit area
- effect on frequency of polysialylated neurons in the subventricular zone of the rat hippocampal dentate gyrus ([1]; chronic administration, versus vehicle-treated control): significantly increase
- dose dependent increase in basal frequency of hippocampal polysialylated neurons compared with SB271046 of Example 1 ([1]; chronic treatment, analysis of variance F[1,21]=5.882, P=0.0244): significantly greater
- PSA immunopositive cell frequency ([2]; 12 h post water maze training): 125.9 ± 4.7 PSA-positive cells per unit area
- PSA immunopositive cell frequency ([2]; untrained): 104.2 ± 4.4 PSA-positive cells per unit area
- increase in frequency of hippocampal polysialylated neurons 12 h following water maze training compared with SB271046 of Example 2 ([2]; Student's t-test P=0.0337): significantly greater
- effect on frequency of polysialylated neurons at 12 h following water maze training ([2]; versus untrained drug-treated and trained drug-naive animals): significantly increase
- BrdU-immunopositive cell number/granule cell layer ([3]; 20 mg/kg, 40 days by gavage, BrdU 100 mg/kg i.p. last eight days): 2296.7 ± 49.1
- effect on expression of BrdU-immunopositive cells / neurogenic rate ([3]; chronic 20 mg/kg, versus vehicle-treated controls): without altering neurogenic rate

Structure (SMILES): NCCc1c[nH]c2ccc(O)cc12 [Serotonin]
- effect on hippocampal neurogenesis (hippocampal neurogenesis): stimulate hippocampal neurogenesis

Structure (SMILES): CN1CCN(C2=Nc3cc(Cl)ccc3Nc3ccccc32)CC1 [clozapine, reference compound]
- PSA immunopositive cell frequency ([1]; Example 1, 5 mg/kg, chronic comparison group): 69.8 ± 1.6 PSA-positive cells per unit area

Structure (SMILES): CNCCC(Oc1ccc(C(F)(F)F)cc1)c1ccccc1 (stereo not drawn) [fluoxetine]
- effect on hippocampal neurogenesis (hippocampal neurogenesis): stimulate hippocampal neurogenesis

Structure (SMILES): CN1CC[C@]23c4c5ccc(O)c4O[C@H]2[C@@H](O)C=C[C@H]3[C@H]1C5 [morphine]
- effect on hippocampal neurogenesis (hippocampal neurogenesis): reduce the rate of hippocampal neurogenesis

Structure (SMILES): CCOc1ccccc1OC(c1ccccc1)C1CNCCO1 (stereo not drawn) [reboxetine]
- effect on hippocampal neurogenesis (hippocampal neurogenesis): stimulate hippocampal neurogenesis

Source: patent US20070270432A1, “Novel Method” (priority 2002, published 2007)
